# The source made the active and inactive calls.
# Tests used:
# [1] = molecular target: T1, Heat shock factor protein 1 (Mus musculus, UniProt P38532); test: HSF1 potentiators in luciferase reporter cells, confirmation, cell-based, NIH3T3, luminescence, dose retest (AID 435004); type: functional;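 further: stress induced by proteasome inhibitor MG132 added 30 min after compound; luciferase reporter driven by HSF1 response element in NIH3T3 cells; actives raise luminescence as potentiators of the MG132 stress response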
# T1 sequence (P38532 whole entry): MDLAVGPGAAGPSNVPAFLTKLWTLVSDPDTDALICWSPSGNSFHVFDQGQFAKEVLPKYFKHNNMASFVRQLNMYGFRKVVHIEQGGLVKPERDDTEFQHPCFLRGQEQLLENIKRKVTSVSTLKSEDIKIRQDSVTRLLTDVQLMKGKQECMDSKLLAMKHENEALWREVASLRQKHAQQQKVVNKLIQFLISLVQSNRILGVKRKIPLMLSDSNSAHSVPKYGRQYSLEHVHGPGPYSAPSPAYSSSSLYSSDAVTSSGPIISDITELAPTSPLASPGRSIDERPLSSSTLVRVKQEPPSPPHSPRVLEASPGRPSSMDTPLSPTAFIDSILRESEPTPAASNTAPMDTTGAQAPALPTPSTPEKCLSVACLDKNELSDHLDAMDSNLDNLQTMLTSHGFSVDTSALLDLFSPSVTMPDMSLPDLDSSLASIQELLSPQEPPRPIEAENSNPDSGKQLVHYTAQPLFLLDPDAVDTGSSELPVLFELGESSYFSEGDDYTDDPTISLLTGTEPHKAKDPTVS
# [2] = inhibitors of intracellular T. cruzi replication, confirmation, NIH3T3 host cells, beta-gal luminescence (AID 2044); type: functional, cell-based;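 further: intracellular parasites grown in NIH/3T3 mouse fibroblasts as host cells; luminescent beta-galactosidase reporter signal from transgenic T. cruzi replicating inside host cells; inhibitors lower the luminescence signal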
# [3] = cytotoxicity toward NIH3T3 fibroblasts, dose response, counter-screen, cell-based, ATP luminescence, mouse fibroblasts (AID 2010); type: functional;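 further: cells exposed to compound for about 90 hours before reading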
# [4] = molecular target: T2, Rac GTPase-activating protein 1 (Homo sapiens, UniProt Q9H0H5); test: MgcRacGAP GTPase-activating activity inhibitors, confirmation, biochemical, ADP Hunter fluorescence, primary and confirmatory (AID 624330); type: functional
# T2 sequence (Q9H0H5 whole entry): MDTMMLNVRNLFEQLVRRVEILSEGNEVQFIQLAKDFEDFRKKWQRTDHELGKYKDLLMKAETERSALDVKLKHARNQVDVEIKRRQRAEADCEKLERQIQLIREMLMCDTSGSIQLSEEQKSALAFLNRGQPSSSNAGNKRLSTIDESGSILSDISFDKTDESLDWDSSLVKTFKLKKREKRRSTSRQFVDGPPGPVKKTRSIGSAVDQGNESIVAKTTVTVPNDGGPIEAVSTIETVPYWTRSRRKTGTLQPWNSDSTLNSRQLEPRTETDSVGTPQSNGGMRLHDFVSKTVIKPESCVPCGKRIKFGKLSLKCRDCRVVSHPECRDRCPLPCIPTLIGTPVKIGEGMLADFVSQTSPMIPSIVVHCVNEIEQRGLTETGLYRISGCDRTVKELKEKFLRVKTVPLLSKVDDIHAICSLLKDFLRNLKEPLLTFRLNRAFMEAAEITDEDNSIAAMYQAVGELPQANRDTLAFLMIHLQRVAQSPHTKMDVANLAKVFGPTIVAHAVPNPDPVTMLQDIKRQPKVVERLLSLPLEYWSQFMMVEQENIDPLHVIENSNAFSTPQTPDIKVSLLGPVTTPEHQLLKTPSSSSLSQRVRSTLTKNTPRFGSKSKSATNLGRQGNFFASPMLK
# [5] = inhibitors of firefly luciferase expression or activity, dose response, H4 neuroglioma cells, luminescence (AID 1990); type: functional, cell-based
# [6] = inhibitors of SNCA 5'UTR-driven reporter translation, confirmation, H4 neuroglioma cells, luminescence (AID 1988); type: functional, cell-based
# [7] = HEp-2 cell cytotoxicity, dose response, cytotoxicity control for RSV inhibitor project, HTS (AID 2410); type: functional; settings: human respiratory syncytial virus
# [8] = Luminescence Cell-Based Dose Response HTS to Identify Inhibitors of 5'UTR Stem-Loop Driven Prion Protein mRNA Translation in H4 Neuroglioblastoma Cells. [Related pubchem assays: 1827 (Project Summary), 1813 (Primary HTS)]; type: functional
# Large T antigen = Large T antigen (Simian virus 40, UniProt P03070); type: functional, Betapolyomavirus macacae;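 further: Confirmatory-stage PubChem screen for compounds that inhibit SV40 T antigen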
# Sequence of Large T antigen (P03070 whole entry): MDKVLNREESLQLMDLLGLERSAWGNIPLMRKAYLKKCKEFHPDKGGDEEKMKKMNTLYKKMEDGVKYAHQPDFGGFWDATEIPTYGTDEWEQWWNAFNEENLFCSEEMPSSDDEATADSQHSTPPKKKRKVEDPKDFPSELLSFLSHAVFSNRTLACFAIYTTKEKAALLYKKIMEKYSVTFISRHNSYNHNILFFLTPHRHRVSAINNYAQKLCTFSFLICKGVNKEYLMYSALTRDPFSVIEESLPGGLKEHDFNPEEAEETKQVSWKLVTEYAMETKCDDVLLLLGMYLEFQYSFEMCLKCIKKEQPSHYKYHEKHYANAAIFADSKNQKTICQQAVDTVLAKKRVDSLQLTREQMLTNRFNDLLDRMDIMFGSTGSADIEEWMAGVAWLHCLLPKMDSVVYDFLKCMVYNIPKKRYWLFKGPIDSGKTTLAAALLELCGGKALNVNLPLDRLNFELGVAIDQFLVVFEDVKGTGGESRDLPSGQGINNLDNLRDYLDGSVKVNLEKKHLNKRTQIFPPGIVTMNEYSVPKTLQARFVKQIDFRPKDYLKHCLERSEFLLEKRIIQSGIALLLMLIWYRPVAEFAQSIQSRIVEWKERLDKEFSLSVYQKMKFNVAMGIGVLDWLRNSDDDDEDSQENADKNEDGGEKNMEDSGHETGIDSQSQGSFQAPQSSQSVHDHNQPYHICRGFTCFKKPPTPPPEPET
# [9] = Luminescence Cell-Based Dose Confirmation HTS to Identify Activators of 5'UTR Stem-Loop Driven Alpha-Synuclein mRNA Translation in H4 Neuroglioblastoma Cells. [Related pubchem assays: 1829 (Project Summary), 1814 (Primary HTS)]; type: functional
# H4 = test: Luminescence Cell-Based Dose Response HTS to Identify Activators of 5'UTR Stem-Loop Driven Prion Protein mRNA Translation in H4 Neuroglioblastoma Cells. [Related pubchem assays: 1829 (Project Summary), 1814 (Primary HTS)]; type: functional; settings: Homo sapiens
# [10] = Luminescence Cell-Based Dose Response HTS to Identify Activators of Luciferase Translation or Activity in H4 […] Cells. [Related pubchem assays: 1829 (Project Summary), 1814 (Primary HTS)]; type: functional
# [11] = molecular target: FAD-linked sulfhydryl oxidase ALR (Homo sapiens, UniProt P55789); test: inhibitors of human ALR sulfhydryl oxidase, dose response, biochemical, H2O2 detection, luminescence, cherry-pick (AID 493248)
# Sequence of FAD-linked sulfhydryl oxidase ALR (P55789 whole entry): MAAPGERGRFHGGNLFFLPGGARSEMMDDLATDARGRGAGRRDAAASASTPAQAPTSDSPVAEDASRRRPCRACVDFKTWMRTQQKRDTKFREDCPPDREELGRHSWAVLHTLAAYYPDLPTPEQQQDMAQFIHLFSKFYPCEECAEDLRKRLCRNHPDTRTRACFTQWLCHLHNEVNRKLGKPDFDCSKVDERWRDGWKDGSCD
# [12] = molecular target: T1, Heat shock factor protein 1; test: inhibition of MG132-induced HSE-luciferase signal, confirmation, cell-based, NIH3T3, luminescence, dose retest (AID 2382); type: functional;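 further: NIH3T3 fibroblasts with HSF1-driven luciferase reporter stressed by proteasome inhibitor MG132; luminescence from HSF1-driven luciferase expression after 8 hours of MG132 stress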
# [13] = Luminescence Cell-Based Dose Retest to Confirm Inhibitors of Cancer Stem Cells. [Related pubchem assays (depositor defined):AID2717, AID2721]; type: functional; settings: Homo sapiens
# Cytochrome P450 2C19 = Cytochrome P450 2C19 (Homo sapiens, UniProt P33261); test: Cytochrome panel assay with activity outcomes. Panel member name: p450-cyp2c19 Compounds with AC50 equal or less than 10 uM are considered active; type: functional; settings: read-out: AC50
# Sequence of Cytochrome P450 2C19 (P33261 whole entry): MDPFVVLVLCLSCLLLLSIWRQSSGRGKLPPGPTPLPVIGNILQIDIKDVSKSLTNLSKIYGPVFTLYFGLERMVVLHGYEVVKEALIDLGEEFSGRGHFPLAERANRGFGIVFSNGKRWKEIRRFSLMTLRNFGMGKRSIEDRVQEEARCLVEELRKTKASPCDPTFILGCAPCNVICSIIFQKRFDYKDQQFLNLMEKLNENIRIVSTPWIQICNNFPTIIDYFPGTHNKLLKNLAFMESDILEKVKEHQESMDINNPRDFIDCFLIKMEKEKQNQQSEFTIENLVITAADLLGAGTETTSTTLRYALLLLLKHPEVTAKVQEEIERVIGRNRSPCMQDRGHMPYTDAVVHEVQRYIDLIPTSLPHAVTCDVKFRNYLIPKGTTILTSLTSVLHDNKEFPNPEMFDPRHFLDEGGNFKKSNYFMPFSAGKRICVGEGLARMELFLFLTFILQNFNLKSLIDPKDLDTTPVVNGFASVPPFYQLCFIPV
structure (smiles),measurement,setting,value
CN(C)c1ccc(C(C[N+](=O)[O-])c2c(N)n(C)c(=O)n(C)c2=O)c(F)c1C#N (configuration not stated),EC50,[1],> 260 µM (inactive)
COC(=O)c1cnc(N2CCCN(S(=O)(=O)c3ccc(C(F)(F)F)cc3)CC2)nc1C(F)(F)F,EC50,[2],3.03 µM (active)
same,EC50,[3],> 60 µM (not active)
same,EC50,[1],> 260 µM (inactive)
COc1cccc(CNc2nc3ccccc3n2C(C)C)c1O,EC50,[1],> 260 µM (inactive)
COc1ccc(/C=N/NC(=O)c2cc[n+]([O-])cc2)cc1O,IC50,[4],38.2 µM (active)
Cc1ccc(C)c(Cn2nnc3c(=O)[nH]c(C4CCN(C(=O)c5cccs5)CC4)nc32)c1,EC50,[1],> 260 µM (inactive)
Cc1ccc(-n2nc3c(=O)n(CCCC(=O)NCc4cccc(Cl)c4)nc(C)c3c2C)cc1,EC50,[5],14.1 µM (active)
same,EC50,[6],61.6 µM (active)
same,CC50,[7],28.4 µM (active)
same,EC50,[8],74.3 µM (active)
CN(C)c1ccc(N2C(=O)CC(Nc3ccc(N4CCOCC4)cc3)C2=O)cc1 (configuration not stated),IC50,Large T antigen,12.9 µM (active)
Cc1cccc(/C=N/c2sc3c(c2C#N)CCN(Cc2ccccc2)C3)c1O,EC50,[9],15.2 µM (active)
same,EC50,H4,20.2 µM (active)
same,EC50,[10],30.1 µM (active)
Cc1ccn2c(NC3CCCCC3)c(C(C)C)nc2c1,AC50,[11],2.82 µM (active)
Cn1ccc(C(=O)Oc2ccc(C(=O)Nc3ccc(F)cc3F)cc2)n1,EC50,[9],> 120 µM (not active)
same,EC50,H4,> 120 µM (not active)
same,EC50,[10],16.8 µM (active)
Cc1cccc(NC(=O)c2sc(-c3ccccc3)nc2-c2ccc([N+](=O)[O-])cc2)c1,EC50,[2],1.53 µM (active)
same,EC50,[3],> 60 µM (not active)
same,EC50,[12],> 195 µM (not active)
CCN(CC)c1ccc(/C=N\NC(N)=O)cc1,IC50,[4],50.7 µM (active)
same,AC50,[11],0.825 µM (active)
C=CCn1c(CNc2ccc(C)cc2)nnc1SCC(=O)N/N=C/c1ccc(O)cc1O,IC50,[4],85.1 µM (active)
same,AC50,[13],4.31 µM (active)
Nc1ccccc1C(=O)N/N=C1\C2CN3CCN(C2)CC1(c1ccccc1)C3,EC50,[9],> 120 µM (not active)
same,EC50,H4,8.13 µM (active)
same,EC50,[10],> 120 µM (not active)
Cc1ccc(OCCC(=O)N2CCN(c3ccc(O)cc3)CC2)cc1,IC50,Large T antigen,11.8 µM (active)
COCCCNC(=S)N/N=C/c1ccc(O)cc1O,IC50,Large T antigen,9.14 µM (active)
Cc1nnc(SCc2ccccc2)n1CC1CCCO1 (configuration not stated),IC50,Large T antigen,> 100 µM (active)
[O-][n+]1onc2c3c4c(n(O)c3ccc21)CCCC4,AC50,[11],0.497 µM (active)
N#CCCn1cc(C(=O)Nc2ccc([N+](=O)[O-])cc2)c(-c2ccccc2)n1,EC50,[12],> 195 µM (not active)
O=c1c2sccc2nc(SCc2ccc([N+](=O)[O-])cc2)n1Cc1ccccn1,CC50,[7],20.4 µM (active)
same,EC50,[1],57.3 µM (active)
O=C(CN1CCN(c2ccc(O)cc2)CC1)Nc1ccc(S(=O)(=O)N2CCCC2)cc1,AC50,[11],0.699 µM (active)
Cc1ccn2c(NC(C)(C)C)c(-c3cccs3)nc2c1,AC50,[11],1.58 µM (active)
COc1ccc(/C=N/Nc2nc(N3CCCC3)nc(N3CCCC3)n2)cc1O,IC50,[4],62.2 µM (active)
same,IC50,Large T antigen,10.2 µM (active)
CC1Oc2ccccc2N(CC(=O)NCc2ccccc2)C1=O (configuration not stated),EC50,[12],> 195 µM (not active)
CCOc1ccccc1/C=N/Nc1ccccc1[N+](=O)[O-],EC50,[9],0.351 µM (active)
same,EC50,H4,62.5 µM (inconclusive)
same,EC50,[10],4.07 µM (active)
Cc1cccc(Oc2ccc3c(c2)cc(C(=O)O)n3C)c1,AC50,[11],0.211 µM (active)
Cc1ccc(CCNC(=O)C2CCN(S(=O)(=O)c3ccc4c(c3)NC(=O)CO4)CC2)cc1,EC50,[1],> 260 µM (inactive)
COCC/N=C1/Sc2nc3c(C)cccc3cc2CN1Cc1ccco1,IC50,Large T antigen,67.5 µM (active)
same,CC50,[7],39.2 µM (active)
same,AC50,Cytochrome P450 2C19,2.51 µM (inconclusive)
NNC(=O)c1ccc(O)cc1,AC50,[11],4.28 µM (active)
Nc1[nH]cnc2nc(SCCOc3ccc(Cl)cc3)nc1-2,EC50,[12],> 195 µM (not active)
CC(=O)Nc1ccc(C2=NN(Cc3nnc(-c4ccccc4)o3)C(=O)SC2)cc1,EC50,[1],> 260 µM (inactive)
COc1cccc2c(N/N=C/c3ccc(O)c(O)c3)cc(C)nc12,IC50,Large T antigen,23.8 µM (active)
CC(C)(C)NC(=O)COC(=O)c1ccccc1Nc1ccc(SC(F)F)cc1,EC50,H4,12.8 µM (active)
same,EC50,[10],23.9 µM (active)
CC(C(=O)NC(=O)NC1CCCCC1)N1CCN(c2ccc(O)cc2)CC1 (configuration not stated),IC50,[4],55.5 µM (active)
COc1ccc(CCNC(=O)c2cccc([N+](=O)[O-])c2)cc1OC,EC50,[12],2.26 µM (active)
CCOc1ccc2nc(N3CCOCC3)nc(C)c2c1,EC50,[9],32 µM (active)
same,EC50,[10],0.256 µM (active)
O=C(Cc1coc2cc(O)ccc12)N1CCN(S(=O)(=O)c2ccc(Br)cc2)CC1,IC50,[4],21.6 µM (active)
O=Nc1ccc(NOC(=O)c2ccccc2Br)cc1,IC50,Large T antigen,30.1 µM (active)
COc1ccc(/C=C2\C(=O)ON=C2c2ccccc2)cc1,AC50,[11],66.4 µM (active)
CN(C)c1cccc(C(=O)NC2CCCCCC2)c1,AC50,[11],8.08 µM (active)
Cc1nc2sccn2c(=O)c1S(=O)(=O)Nc1ccc(N2CCOCC2)c(Cl)c1,EC50,[12],92.2 µM (active)
CN(C)c1ccc(CNC(=O)C2CCN(S(=O)(=O)c3ccc4c(c3)CCCC(=O)N4)CC2)cc1,AC50,[11],5.99 µM (active)
CCOC(=O)c1c(CN(C)C)n(C)c2ccc(OC(C)=O)cc12,EC50,[12],> 195 µM (not active)
CCOC(=O)c1nnsc1Nc1ccc(C)c(C)c1,EC50,[1],104 µM (active)
COCCCNc1nc(S)nc2cc(OC)c(OC)cc12,IC50,[4],69.7 µM (active)
CCN(Cc1ccncc1)Cc1ccc(OC)c(OC)c1,IC50,[4],190 µM (active)
O=C(CN(CC1CCCO1)S(=O)(=O)c1ccc(S(=O)(=O)NC2CC2)cc1)Nc1ccccc1 (configuration not stated),EC50,[1],> 260 µM (inactive)
CCOc1cc(C(c2c(O)nc(SC)nc2O)c2c(O)nc(SC)nc2O)ccc1O,IC50,Large T antigen,> 100 µM (active)
COc1ccc(C2SCC(=O)N2c2ccc(F)cc2)cc1 (configuration not stated),AC50,[11],0.049 µM (active)
Cc1sc2ncnc(N3CCC(C(=O)N(C)CC(=O)Nc4ccc(Cl)c(C(F)(F)F)c4)CC3)c2c1C,EC50,[5],7.86 µM (active)
same,EC50,[2],2.73 µM (active)
same,EC50,[3],> 60 µM (not active)
same,AC50,[13],3.41 µM (active)
same,EC50,[6],10.3 µM (active)
same,EC50,[8],13 µM (active)
O=C(C1CCCN(S(=O)(=O)c2c[nH]cn2)C1)N1CCN(c2ccc(Cl)cc2)CC1 (configuration not stated),AC50,[11],> 100 µM (inactive)
O=S(=O)(Nc1ccncc1)c1ccc(Cl)cc1,EC50,[12],> 195 µM (not active)

# Source: ChEMBL document CHEMBL1201862, “PubChem BioAssay data set” (2004)
